Data from patent publication US20230416239A1, “COMPOUNDS AND METHODS FOR TREATING A CYTOKINE-MEDIATED DISEASE” (CONSERVATOIRE NATIONAL DES ARTS ET MÉTIERS, priority 2020, published 2023).

Legend:
[1] = molecular target: TNFα (Homo sapiens, UniProt P01375); assay: Immunoassay binding test, TNFa; conditions: compounds 100 to 0.78 μM; TNFα 10 ng/ml, receptor 100 ng/ml; read-out: BINDING TNF IC50
Description: Microtiter plates (96 wells) are covered with 100 μl of receptor per well, and incubated overnight at 4° C. The following day, after 2 washes in PBS/Tween20, the plates are saturated with 150 μl of PBS/BSA 2% per well, for 2 h at 37° C. […] The cytokine is diluted in series (six concentrations) in a final volume of 120 μl per well. […] The different mixtures are incubated for 2 h at 37° C. 100 μl of each mixture are then transferred to the microtiter plate, respecting the plate plan previously defined and incubated overnight at 4° C. After three washes, 100 μl of biotinylated anti-cytokine secondary antibody are added to each well, then incubated for 2 h at 37° C. After three washes, 100 μl of Avidin-HRP (1/500th dilution) are added and incubated for 30 minutes at 37° C. […] The plates are then read with a spectrophotometer at 450 nm, measuring the optical density for each well.
(§1) This binding test is carried out with different cytokines: TNFa, IL-4, IL-6 and IL-13. For IL-6, the incubation of molecules with the cytokine also requires the presence of IL-6Ra at a final concentration of 200 ng/ml.
(§2) The final concentrations used for each of the cytokines are presented below: […]

[2] = molecular target: T1, IL-4 (Homo sapiens, UniProt P05112); assay: Immunoassay binding test, IL-4; conditions: for IC50: IL-4 400 ng/ml, receptor 100 ng/ml, read-out: BINDING IL4 IC50
T1 sequence (P05112 25-153): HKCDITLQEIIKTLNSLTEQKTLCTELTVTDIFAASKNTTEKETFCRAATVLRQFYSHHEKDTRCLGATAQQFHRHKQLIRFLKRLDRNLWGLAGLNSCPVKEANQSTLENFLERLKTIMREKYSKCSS
Description: (§3) Microtiter plates (96 wells) are covered with 100 μl of receptor per well, and incubated overnight at 4° C. The following day, after 2 washes in PBS/Tween20, the plates are saturated with 150 μl of PBS/BSA 2% per well, for 2 h at 37° C. Synthetic compounds are diluted in series (final concentrations: 100 to 0.78 μM) then a fixed amount of cytokine in PBS/BSA 1% is added to the compounds, in a final volume of 120 μl per well. […] The cytokine is diluted in series (six concentrations) in a final volume of 120 μl per well. The cytokine is used in the absence of small molecule as well as the range of SPD304 as positive controls and the absence of cytokine and synthetic molecule as negative control. The different mixtures are incubated for 2 h at 37° C. 100 μl of each mixture are then transferred to the microtiter plate, respecting the plate plan previously defined and incubated overnight at 4° C. After three washes, 100 μl of biotinylated anti-cytokine secondary antibody are added to each well, then incubated for 2 h at 37° C. After three washes, 100 μl of Avidin-HRP (1/500th dilution) are added and incubated for 30 minutes at 37° C. […] The plates are then read with a spectrophotometer at 450 nm, measuring the optical density for each well.
as §1, §2

[3] = molecular target: TNFa/TNFRI interaction (Homo sapiens, UniProt P01375); assay: TNFa/TNFRI interaction displacement test; assay type: binding; conditions: for Displacement (%): compounds at 50 μM, human TNFRI 100 ng/ml;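 on Displacement EC50 TNFa in presence of compound: Difference: SPD304 reference at 20 µM final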
TNFa/TNFRI interaction, sequence (P01375 77-233 limits assumed): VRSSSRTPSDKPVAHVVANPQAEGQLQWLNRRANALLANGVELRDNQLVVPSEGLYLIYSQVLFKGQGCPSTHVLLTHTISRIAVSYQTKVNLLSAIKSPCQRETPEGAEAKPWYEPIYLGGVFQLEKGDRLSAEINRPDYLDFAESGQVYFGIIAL
Description: Microtiter plates (96 wells) are covered with 100 μl per well of human TNFRI, at a concentration of 100 ng/ml, then incubated overnight at 4° C. The following day, after two washes in PBS/Tween20, the plates are saturated with 150 μl of PBS/BSA 2% for 2 h at 37° C.
100 μl of each mixture are then transferred to the microtiter plate, respecting the established plate plan and incubated overnight at 4° C.
After three washes, 100 μl of biotinylated anti-cytokine secondary antibody are added to each well and incubated for 2 h at 37° C. After three washes, 100 Avl Avidin-HRP (dilution 1/500th) are added and incubated for 30 minutes at 37° C. […] The plates are then read with a spectrophotometer at 450 nm, measuring the optical density (OD) for each well.

[4] = molecular target: IL-13 (Homo sapiens, UniProt P35225); assay: Immunoassay binding test, IL-13; conditions: for IC50: IL-13 400 ng/ml, receptor 100 ng/ml, read-out: BINDING IL13 IC50
IL-13, sequence (P35225 25-146, species assumed): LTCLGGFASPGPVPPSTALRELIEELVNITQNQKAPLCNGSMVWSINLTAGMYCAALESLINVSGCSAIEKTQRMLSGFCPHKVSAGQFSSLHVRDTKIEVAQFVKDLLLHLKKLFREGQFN
Description: Microtiter plates (96 wells) are covered with 100 μl of receptor per well, and incubated overnight at 4° C. The following day, after 2 washes in PBS/Tween20, the plates are saturated with 150 μl of PBS/BSA 2% per well, for 2 h at 37° C. Synthetic compounds are diluted in series (final concentrations: 100 to 0.78 μM) then a fixed amount of cytokine in PBS/BSA 1% is added to the compounds, in a final volume of 120 μl per well. […] The cytokine is diluted in series (six concentrations) in a final volume of 120 μl per well. […] The different mixtures are incubated for 2 h at 37° C. 100 μl of each mixture are then transferred to the microtiter plate, respecting the plate plan previously defined and incubated overnight at 4° C. After three washes, 100 μl of biotinylated anti-cytokine secondary antibody are added to each well, then incubated for 2 h at 37° C. After three washes, 100 μl of Avidin-HRP (1/500th dilution) are added and incubated for 30 minutes at 37° C. […] The plates are then read with a spectrophotometer at 450 nm, measuring the optical density for each well.
as §1, §2

[5] = molecular target: IL-6 (Homo sapiens, UniProt P05231); assay: Immunoassay binding test, IL-6 (gp130 receptor, IL-6Ra present); conditions: IL-6Ra 200 ng/ml
IL-6, sequence (P05231 30-212, species assumed): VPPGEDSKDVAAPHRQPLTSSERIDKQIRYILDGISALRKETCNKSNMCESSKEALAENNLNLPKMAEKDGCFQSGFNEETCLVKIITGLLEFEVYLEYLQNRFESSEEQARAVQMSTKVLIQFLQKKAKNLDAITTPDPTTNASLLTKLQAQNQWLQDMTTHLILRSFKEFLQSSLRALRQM
Description: as §3, §1, §2

TNFα, sequence (P01375 77-233 limits assumed, species assumed): as the sequence (P01375 77-233 limits assumed) above

Compound	IC50 [1]	BINDING IL4 % Neutra at 100 μM [2]	IC50 [2]	Displacement (%) [3]	BINDING IL13 % Neutra at 100 μM [4]	IC50 [4]	BINDING IL6 % Neutra at 100 μM [5]	Displacement EC50 TNFa in presence of compound: Difference ([3]; Compound EC50 minus SPD304 EC50)
O=S(=O)(c1ccccc1)n1cc(CN(CCCCCNC2CCCCC2)Cc2ccnc(F)c2)c2ccccc21 [Compound 47, N1-cyclohexyl-N5-((2-fluoropyridin-4-yl)methyl)-N5-((1-(phenylsulfonyl)-1H-indol-3-yl)methyl)pentane-1,5-diamine]	8.9 µM	93.3%	5.5 µM	99%	93.1%	17.8 µM	0%	
O=S(=O)(c1ccccc1)n1cc(CN(CCCCNC2CCC2)Cc2cccnc2F)c2ccccc21 [Compound 69, N′-cyclobutyl-N^4-((2-fluoropyridin-3-yl)methyl)-N^4-((1-(phenylsulfonyl)-1H-indol-3-yl)methyl)butane-1,4-diamine]	12.1 µM	93.6%	5.6 µM	121%	79.7%	> 50 µM	0%	
O=S(=O)(NCCCCN(Cc1cccnc1F)Cc1cn(S(=O)(=O)c2ccccc2)c2ccccc12)N1CCOCC1 [Compound 82]	> 50 µM	27.9%	> 100 µM	18%	0%		5%	
O=S(=O)(c1ccccc1)n1cc(CN(CCCCCNC2CCCCC2)Cc2ccc(F)nc2)c2ccccc21 [Compound 56]	13.2 µM	91.9%	2.6 µM	124%	93.4%	10.2 µM	0%	
CN(CCCN(Cc1cccnc1)Cc1cn(-c2cccc(C(F)(F)F)c2)c2ccccc12)C1CCCCC1 [Compound 13]	4.3 µM	97.9%	5 µM	186%	85.2%	> 50 µM	8.9%	6.4 ng/mL
O=S(=O)(c1ccccc1)n1cc(CN(CCNC2CCCCC2)Cc2ccncc2)c2ccccc21 [Compound 26]	14.1 µM	95.5%	8.4 µM	107%	66%	> 50 µM	−17.2%	
O=S(=O)(c1ccccc1)n1cc(CN(CCCCN(C2CCC2)C2CCC2)Cc2cccnc2F)c2ccccc21 [Compound 86]	5 µM	92.6%	4.9 µM	188%	87.9%	> 50 µM	6%	
CN(CCCN(Cc1ccncc1)Cc1cn(-c2cccc(C(F)(F)F)c2)c2ccccc12)C1CCCCC1 [Compound 14]	11.8 µM	98.4%	5.3 µM	149%	91.2%	> 50 µM	2.8%	
O=[N+]([O-])c1ccccc1S(=O)(=O)NCCCN(Cc1cccnc1)Cc1cn(S(=O)(=O)c2ccccc2)c2ccccc12 [Compound 60]	> 50 µM	36.4%		2%	0%		0%	
CCCN(CCOCCN(Cc1cccnc1F)Cc1cn(S(=O)(=O)c2ccccc2)c2ccccc12)C1CCCCC1 [Compound 101]	17.4 µM	81.9%	7.9 µM	152%	56.3%	35.5 µM	0%	
CCN(CC)S(=O)(=O)NCCCCN(Cc1cccnc1F)Cc1cn(S(=O)(=O)c2ccccc2)c2ccccc12 [Compound 79]	> 50 µM	31.0%	> 100 µM	3%	0%		1%	
CCCCN(CCOCCN(Cc1cccnc1F)Cc1cn(S(=O)(=O)c2ccccc2)c2ccccc12)C1CCCCC1 [Compound 99, N-butyl-N-(2-(2-(((2-fluoropyridin-3-yl)methyl)((1-(phenylsulfonyl)-1H-indol-3-yl)methyl)amino)ethoxy)ethyl)cyclohexanamine]	8.2 µM	87.4%	4.4 µM	173%	91.8%	> 50 µM	0%	
CN(CCCCN(Cc1cccnc1F)Cc1cn(S(=O)(=O)c2ccccc2)c2ccccc12)C1CCCCCCC1 [Compound 76, N′-cyclooctyl-N^4-((2-fluoropyridin-3-yl)methyl)-N′-methyl-N^4-((1-(phenylsulfonyl)-1H-indol-3-yl)methyl)butane-1,4-diamine]	7.9 µM	92.8%	4.6 µM	154%			1%	
